The record followed here is patent US10112932B2, “Benzoxazepin oxazolidinone compounds and methods of use” (Genentech, Inc., priority 2015, dated 2018).

Data set [1] relates to HDQ-P1 (PI3Kα wild-type), p-PRAS40. The experiment in a line: p-PRAS40 MSD assay in HDQ-P1 cells (Example 907). Particulars: Homo sapiens, HDQ-P1, 24 h, read-out: P-PRAS40 HDQ-P1 MSD EC50.
In data set [2] the test system is SW48 (parental) PI3Kα wild-type cells, P-PRAS40. In words: Inhibition of P-PRAS40 in SW48 isogenic cells, PI3Kα wild-type parental (Example 902). Particulars: Homo sapiens, SW48, 24 h, read-out: P-PRAS40 SW48 (parental) EC50.
A short description of data set [3]: Unbound fraction in mouse plasma (Fu). Type of data set: in vitro ADME. The note with it: read-out: Fu mouse (unbound fraction in species plasma).
The test system of data set [4] is SW48 (H1047R) PI3Kα mutant cells, P-PRAS40. In words: Inhibition of P-PRAS40 in SW48 isogenic cells, kinase domain mutant H1047R (Example 902).

The EC50 is the midpoint of the concentration-response curve. For orientation: fraction unbound means free concentration divided by total concentration. Take `C[C@H](Nc1ccc2c(c1)OCCn1cc(N3C(=O)OC[C@H]3C(F)F)nc1-2)C(N)=O` [Compound 101, (S)-2-((2-((S)-4-(Difluoromethyl)-2-oxooxazolidin-3-yl)-5,6-dihydrobenzo[f]imidazo[1,2-d][1,4]oxazepin-9-yl)amino)propanamide]: the EC50 worked out at 84 nM in data set [1]; 6.3 nM in data set [2]; 3 nM in data set [4] (Homo sapiens, SW48, 24 h, read-out: P-PRAS40 SW48 (H1047R) EC50). Further, in data set [3], the fraction unbound was determined as 0.252. For the same compound, in data set [4] (EC50 ratio), the “Fold Selectivity for SW48 (H1047R) vs. SW48 (parental)” value is given as 2.1 (p = 0.002).
